≈ marks a conversion by molar mass, not a printed value. Where two headings read alike, the source gives them in different places.
What was measured:
[1] = system: E. coli NCTC 10418; assay: MIC human bacteria (Table 1), serial dilution in nutrient agar; assay type: cell-based; conditions: Escherichia coli, NCTC10418; E. coli NCTC 10418; nutrient agar with 5% chocolated horse blood; read-out: MIC
[2] = system: E. coli ESS; assay: as above; assay type: cell-based; conditions: Escherichia coli
[3] = system: P. mirabilis 889; assay: as above; assay type: cell-based; conditions: Proteus mirabilis
[4] = system: K. aerogenes A; assay: as above; assay type: cell-based; conditions: Klebsiella aerogenes, nutrient agar with 5% chocolated horse blood
[5] = system: Ps. aeruginosa 10662; assay: as above; assay type: cell-based; conditions: Pseudomonas aeruginosa, nutrient agar with 5% chocolated horse blood
[6] = system: Pasteurella multocida 1633; assay: as above; assay type: cell-based
[7] = system: Haemophilus influenzae Q1; assay: as above; assay type: cell-based
[8] = system: Bacillus subtilis 6633; assay: as above; assay type: cell-based; conditions: nutrient agar with 5% chocolated horse blood
[9] = system: Corynebacterium xerosis 9755; assay: as above; assay type: cell-based; conditions: nutrient agar with 5% chocolated horse blood
[10] = system: Sarcina lutea 8340; assay: as above; assay type: cell-based; conditions: nutrient agar with 5% chocolated horse blood
[11] = system: Staph aureus Oxford; assay: as above; assay type: cell-based; conditions: Staphylococcus aureus, nutrient agar with 5% chocolated horse blood
[12] = system: Staph aureus Russell; assay: as above; assay type: cell-based; conditions: Staphylococcus aureus, nutrient agar with 5% chocolated horse blood
[13] = system: Staph aureus W2827; assay: as above; assay type: cell-based; conditions: Staphylococcus aureus, nutrient agar with 5% chocolated horse blood
[14] = system: Strep faecalis I; assay: as above; assay type: cell-based; conditions: nutrient agar with 5% chocolated horse blood
[15] = system: Strep pyogenes A 64/848; assay: as above; assay type: cell-based; conditions: nutrient agar with 5% chocolated horse blood
[16] = system: Strep pyogenes B 2788; assay: as above; assay type: cell-based; conditions: nutrient agar with 5% chocolated horse blood
[17] = system: Strep pyogenes C 2761; assay: as above; assay type: cell-based; conditions: nutrient agar with 5% chocolated horse blood
[18] = system: Strep pneumoniae CN33; assay: as above; assay type: cell-based; conditions: nutrient agar with 5% chocolated horse blood
[19] = system: E. coli NCTC 10418; assay: MIC veterinary bacteria (Table 2), serial dilution in agar; assay type: cell-based; conditions: Escherichia coli, NCTC10418; E. coli NCTC 10418; diagnostic sensitivity test agar; read-out: MIC
[20] = system: E. coli E1; assay: as above; assay type: cell-based; conditions: Escherichia coli, diagnostic sensitivity test agar
[21] = system: S. dublin S7; assay: as above; assay type: cell-based; conditions: Salmonella enterica, diagnostic sensitivity test agar
[22] = system: S. typhimurium S18; assay: as above; assay type: cell-based; conditions: Salmonella enterica, diagnostic sensitivity test agar
[23] = system: Bord bronchiseptica B08; assay: as above; assay type: cell-based; conditions: diagnostic sensitivity test agar
[24] = system: Bord bronchiseptica B09; assay: as above; assay type: cell-based; conditions: diagnostic sensitivity test agar
[25] = system: Past multocida PA1; assay: as above; assay type: cell-based; conditions: diagnostic sensitivity test agar
[26] = system: Past multocida PA2; assay: as above; assay type: cell-based; conditions: diagnostic sensitivity test agar
[27] = system: Erysipelothrix rhusiopathiae NCTC 8163; assay: as above; assay type: cell-based; conditions: NCTC8163; Erysipelothrix rhusiopathiae NCTC 8163; diagnostic sensitivity test agar; read-out: MIC
[28] = system: Corynebacterium pyogenes CY1; assay: as above; assay type: cell-based; conditions: Trueperella pyogenes, diagnostic sensitivity test agar
[29] = system: Staph aureus B4 (pen. resis); assay: as above; assay type: cell-based; conditions: Staphylococcus aureus; Staph aureus B4 (pen. resis); diagnostic sensitivity test agar; read-out: MIC
[30] = system: Staph aureus 152 (pen. sens); assay: as above; assay type: cell-based; conditions: Staphylococcus aureus, diagnostic sensitivity test agar
[31] = system: Staph aureus Oxford; assay: as above; assay type: cell-based; conditions: Staphylococcus aureus; Staph aureus Oxford; diagnostic sensitivity test agar; read-out: MIC
[32] = system: Strep suis (group D) SPS11; assay: as above; assay type: cell-based; conditions: diagnostic sensitivity test agar
[33] = system: Strep uberis SPU1; assay: as above; assay type: cell-based; conditions: diagnostic sensitivity test agar
[34] = system: Strep dysgalaciae SPD1; assay: as above; assay type: cell-based; conditions: diagnostic sensitivity test agar
[35] = system: Strep agalactiae SPA1; assay: as above; assay type: cell-based; conditions: diagnostic sensitivity test agar
[36] = Serum binding by ultrafiltration of porcine serum; assay type: in vitro ADME; conditions: pig, 8 mcg/ml, microbiological assay, read-out: % bound to pig serum (converted)
Experimental: Serum binding was assessed by ultrafiltration of porcine serum containing compounds at 8 mcg/ml, and through an Amicon CF50A ultrafiltration cone. Separation of ultrafiltrate was achieved by centrifugation. Unbound concentrations of compound were measured in the ultrafiltrate by microbiological assay (B. subtilis ATCC 6633) against standards prepared in saline.

[37] = system: Haemophilus influenzae Wy21; assay: MIC human bacteria (Table 1), serial dilution in nutrient agar; assay type: cell-based
[38] = system: Neisseria catarrhalis 1502; assay: as above; assay type: cell-based; conditions: nutrient agar with 5% chocolated horse blood
[39] = system: M. suipneumoniae MS16; assay: anti-mycoplasmal MIC, Friis broth solidified with agarose (Table 4); assay type: cell-based; conditions: Mesomycoplasma hyopneumoniae, 144 h; M. suipneumoniae MS16; 6 days at 37° C.; read-out: MIC
[40] = system: M. suipneumoniae PW/C/210; assay: as above; assay type: cell-based; conditions: Mesomycoplasma hyopneumoniae, 144 h, 6 days at 37° C.
[41] = system: M. suipneumoniae LABER; assay: as above; assay type: cell-based; conditions: Mesomycoplasma hyopneumoniae, 144 h, 6 days at 37° C.
[42] = system: M. suipneumoniae UCD1; assay: as above; assay type: cell-based; conditions: Mesomycoplasma hyopneumoniae, 144 h, 6 days at 37° C.
[43] = Micrococcus luteus, read-out: MIC
[44] = E. coli ESS, nutrient agar with 5% chocolated horse blood, read-out: MIC
[45] = P. mirabilis 889, nutrient agar with 5% chocolated horse blood, read-out: MIC

Structure (SMILES): C/C(=C\C(=O)OCCCCCCS(N)(=O)=O)CC1OCC(CC2OC2C(C)C(C)O)C(O)C1O (stereo not shown) [Example 2, 6-Sulphamoylhexyl monate A]
- MIC [1]: > 100 µg/mL
- MIC [2]: 0.5 µg/mL (≈ 0.985 µM)
- MIC [3]; 889: 50 µg/mL (≈ 98.5 µM)
- MIC [4]: > 100 µg/mL
- MIC [5]: > 100 µg/mL
- MIC ([6]; Pasteurella multocida 1633, nutrient agar with 5% chocolated horse blood, read-out: MIC): 2.5 µg/mL (≈ 4.92 µM)
- MIC ([7]; Haemophilus influenzae, Q1): 0.1 µg/mL (≈ 0.197 µM)
- MIC [8]: 0.5 µg/mL (≈ 0.985 µM)
- MIC ([9]; read-out: MIC): > 100 µg/mL
- MIC [10, 43]: > 100 µg/mL
- MIC [11]: 5 µg/mL (≈ 9.85 µM)
- MIC [12]: 5 µg/mL (≈ 9.85 µM)
- MIC [13]: 5 µg/mL (≈ 9.85 µM)
- MIC [14]: > 100 µg/mL
- MIC [15]: 0.5 µg/mL (≈ 0.985 µM)
- MIC [16]: 1 µg/mL (≈ 1.97 µM)
- MIC [17]: 1 µg/mL (≈ 1.97 µM)
- MIC [18]: 0.2 µg/mL (≈ 0.394 µM)
- MIC [19]: > 80 µg/mL
- MIC [20]: > 80 µg/mL
- MIC [21]: > 80 µg/mL
- MIC [22]: > 80 µg/mL
- MIC [23]: 20 µg/mL (≈ 39.4 µM)
- MIC [24]: 10 µg/mL (≈ 19.7 µM)
- MIC [25]: 0.312 µg/mL (≈ 0.615 µM)
- MIC [26]: 0.039 µg/mL (≈ 0.0768 µM)
- MIC [27]: 20 µg/mL (≈ 39.4 µM)
- MIC [28]: 10 µg/mL (≈ 19.7 µM)
- MIC [29]: 2.5 µg/mL (≈ 4.92 µM)
- MIC [30]: 1.25 µg/mL (≈ 2.46 µM)
- MIC [31]: 2.5 µg/mL (≈ 4.92 µM)
- MIC [32]: 2.5 µg/mL (≈ 4.92 µM)
- MIC [33]: 0.625 µg/mL (≈ 1.23 µM)
- MIC [34]: 0.625 µg/mL (≈ 1.23 µM)
- MIC [35]: 1.25 µg/mL (≈ 2.46 µM)
- fraction unbound [36]: 0.287

Structure (SMILES): C/C(=C\C(=O)OCCCS(=O)(=O)N(C)C)CC1OCC(CC2OC2C(C)C(C)O)C(O)C1O (stereo not shown) [Example 4, 3-N,N-Dimethylsulphamoylpropyl monate A]
- MIC [1]: > 100 µg/mL
- MIC [2, 44]: 2.5 µg/mL (≈ 5.06 µM)
- MIC [3, 45]: > 100 µg/mL
- MIC [4]: > 100 µg/mL
- MIC [5]: > 100 µg/mL
- MIC ([6]; Pasteurella multocida, 1633): 0.5 µg/mL (≈ 1.01 µM)
- MIC ([7]; Haemophilus influenzae, Q1): 0.1 µg/mL (≈ 0.203 µM)
- MIC ([37]; Haemophilus influenzae, WY21): 0.1 µg/mL (≈ 0.203 µM)
- MIC [38]: 1 µg/mL (≈ 2.03 µM)
- MIC [8]: 2.5 µg/mL (≈ 5.06 µM)
- MIC [9]: No Growth
- MIC [10]: No Growth
- MIC [11]: 10 µg/mL (≈ 20.3 µM)
- MIC [12]: 10 µg/mL (≈ 20.3 µM)
- MIC [13]: 10 µg/mL (≈ 20.3 µM)
- MIC [14]: > 100 µg/mL
- MIC [15]: 2.5 µg/mL (≈ 5.06 µM)
- MIC [16]: 2.5 µg/mL (≈ 5.06 µM)
- MIC [17]: 5 µg/mL (≈ 10.1 µM)
- MIC [18]: 1 µg/mL (≈ 2.03 µM)
- MIC [19]: > 80 µg/mL
- MIC [20]: > 80 µg/mL
- MIC [21]: > 80 µg/mL
- MIC [22]: > 80 µg/mL
- MIC [23]: 80 µg/mL (≈ 162 µM)
- MIC [24]: 20 µg/mL (≈ 40.5 µM)
- MIC [25]: 0.625 µg/mL (≈ 1.27 µM)
- MIC [26]: 0.312 µg/mL (≈ 0.632 µM)
- MIC [27]: > 80 µg/mL
- MIC [28]: > 80 µg/mL
- MIC [29]: 5 µg/mL (≈ 10.1 µM)
- MIC [30]: 2.5 µg/mL (≈ 5.06 µM)
- MIC [31]: 2.5 µg/mL (≈ 5.06 µM)
- MIC [32]: 40 µg/mL (≈ 81 µM)
- MIC [33]: 2.5 µg/mL (≈ 5.06 µM)
- MIC [34]: 2.5 µg/mL (≈ 5.06 µM)
- MIC [35]: 2.5 µg/mL (≈ 5.06 µM)
- MIC [39]: 500 µg/mL (≈ 1010 µM)
- MIC [40]: 500 µg/mL (≈ 1010 µM)
- MIC [41]: 500 µg/mL (≈ 1010 µM)
- MIC [42]: 1000 µg/mL (≈ 2030 µM)
- fraction unbound [36]: 0.053

Structure (SMILES): C/C(=C\C(=O)OCCCCCCCCS(N)(=O)=O)CC1OCC(CC2OC2C(C)C(C)O)C(O)C1O (stereo not shown) [Example 3, 8-Sulphamoyloctyl monate A]
- MIC [1]: > 100 µg/mL
- MIC [2, 44]: 0.5 µg/mL (≈ 0.933 µM)
- MIC [3, 45]: > 100 µg/mL
- MIC [4]: > 100 µg/mL
- MIC [5]: > 100 µg/mL
- MIC ([6]; Pasteurella multocida, 1633): 1 µg/mL (≈ 1.87 µM)
- MIC ([7]; Haemophilus influenzae Q1, nutrient agar with 5% chocolated horse blood, read-out: MIC): 0.2 µg/mL (≈ 0.373 µM)
- MIC ([37]; Haemophilus influenzae Wy21, nutrient agar with 5% chocolated horse blood, read-out: MIC): 0.2 µg/mL (≈ 0.373 µM)
- MIC [38]: 1 µg/mL (≈ 1.87 µM)
- MIC [8]: 0.2 µg/mL (≈ 0.373 µM)
- MIC ([9]; read-out: MIC): > 100 µg/mL
- MIC [10, 43]: > 100 µg/mL
- MIC [11]: 1 µg/mL (≈ 1.87 µM)
- MIC [12]: 1 µg/mL (≈ 1.87 µM)
- MIC [13]: 1 µg/mL (≈ 1.87 µM)
- MIC [14]: > 100 µg/mL
- MIC [15]: 0.5 µg/mL (≈ 0.933 µM)
- MIC [16]: 1 µg/mL (≈ 1.87 µM)
- MIC [17]: 1 µg/mL (≈ 1.87 µM)
- MIC [18]: 0.5 µg/mL (≈ 0.933 µM)
- MIC [19]: > 80 µg/mL
- MIC [20]: > 80 µg/mL
- MIC [21]: > 80 µg/mL
- MIC [22]: > 80 µg/mL
- MIC [23]: 80 µg/mL (≈ 149 µM)
- MIC [24]: 40 µg/mL (≈ 74.7 µM)
- MIC [25]: 1.25 µg/mL (≈ 2.33 µM)
- MIC [26]: 0.156 µg/mL (≈ 0.291 µM)
- MIC [27]: 10 µg/mL (≈ 18.7 µM)
- MIC [29]: 0.625 µg/mL (≈ 1.17 µM)
- MIC [30]: 0.625 µg/mL (≈ 1.17 µM)
- MIC [31]: 0.625 µg/mL (≈ 1.17 µM)
- MIC [32]: 20 µg/mL (≈ 37.3 µM)
- MIC [33]: 1.25 µg/mL (≈ 2.33 µM)
- MIC [34]: 2.5 µg/mL (≈ 4.67 µM)
- MIC [35]: 2.5 µg/mL (≈ 4.67 µM)
- fraction unbound [36]: 0.035

Source: patent publication US4312867A, “Antibacterial compounds, processes for their preparation and compositions containing them” (Beecham Group Limited, priority 1979, dated 1982)
